We go through seven compounds from ChEMBL document CHEMBL5465560, “Selectivity Literature for EUbOPEN Chemogenomic Library” (2024).

In experiment [1] the target is Mitogen-activated protein kinase 11 (Homo sapiens) (UniProt Q15759). Put plainly: Selectivity interaction (Kinase panel (Z-LYTE Assay)) EUB0001632a MAPK11. The note with it: at 10 µM.
In experiment [2] the target is T1, Dual specificity tyrosine-phosphorylation-regulated kinase 4 (Homo sapiens) (UniProt Q9NR20).
T1 sequence (whole entry): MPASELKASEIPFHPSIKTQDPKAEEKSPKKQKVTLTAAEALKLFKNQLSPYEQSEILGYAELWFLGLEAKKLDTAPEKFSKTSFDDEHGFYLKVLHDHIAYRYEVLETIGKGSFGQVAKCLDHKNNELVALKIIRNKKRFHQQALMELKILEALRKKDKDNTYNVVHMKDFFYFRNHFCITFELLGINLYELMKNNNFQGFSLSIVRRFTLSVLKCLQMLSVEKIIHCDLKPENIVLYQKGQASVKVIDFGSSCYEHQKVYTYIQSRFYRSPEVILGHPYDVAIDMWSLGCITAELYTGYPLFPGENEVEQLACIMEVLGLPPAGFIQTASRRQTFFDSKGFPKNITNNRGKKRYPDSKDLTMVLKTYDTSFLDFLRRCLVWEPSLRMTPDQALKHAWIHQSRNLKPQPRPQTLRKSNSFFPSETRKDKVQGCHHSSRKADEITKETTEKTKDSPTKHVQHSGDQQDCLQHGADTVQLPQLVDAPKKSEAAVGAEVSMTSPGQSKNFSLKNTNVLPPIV
Nature of the experiment: Selectivity interaction (Kinase panel (Z-LYTE Assay)) EUB0001632a DYRK4. The note with it: at 10 µM.

Experiment [3] concerns the target Tyrosine-protein kinase JAK1 (Homo sapiens, UniProt P23458). Nature of the experiment: Selectivity interaction (ActivX KiNativ screen (ex vivo kinase selectivity in human PBMCs)) EUB0001619a JAK1. The note with it: PBMC, at 1 µM. It counts as cell-based.
Experiment [4] addresses Ephrin type-A receptor 7 (Homo sapiens) (UniProt Q15375). Nature of the experiment: Selectivity interaction (KinomeScan (DiscoverX)) EUB0000666a EPHA7. The note with it: at 10 µM.
Experiment [5] has as its target T2, Ephrin type-B receptor 1 (Homo sapiens) (UniProt P54762).
T2 sequence (whole entry): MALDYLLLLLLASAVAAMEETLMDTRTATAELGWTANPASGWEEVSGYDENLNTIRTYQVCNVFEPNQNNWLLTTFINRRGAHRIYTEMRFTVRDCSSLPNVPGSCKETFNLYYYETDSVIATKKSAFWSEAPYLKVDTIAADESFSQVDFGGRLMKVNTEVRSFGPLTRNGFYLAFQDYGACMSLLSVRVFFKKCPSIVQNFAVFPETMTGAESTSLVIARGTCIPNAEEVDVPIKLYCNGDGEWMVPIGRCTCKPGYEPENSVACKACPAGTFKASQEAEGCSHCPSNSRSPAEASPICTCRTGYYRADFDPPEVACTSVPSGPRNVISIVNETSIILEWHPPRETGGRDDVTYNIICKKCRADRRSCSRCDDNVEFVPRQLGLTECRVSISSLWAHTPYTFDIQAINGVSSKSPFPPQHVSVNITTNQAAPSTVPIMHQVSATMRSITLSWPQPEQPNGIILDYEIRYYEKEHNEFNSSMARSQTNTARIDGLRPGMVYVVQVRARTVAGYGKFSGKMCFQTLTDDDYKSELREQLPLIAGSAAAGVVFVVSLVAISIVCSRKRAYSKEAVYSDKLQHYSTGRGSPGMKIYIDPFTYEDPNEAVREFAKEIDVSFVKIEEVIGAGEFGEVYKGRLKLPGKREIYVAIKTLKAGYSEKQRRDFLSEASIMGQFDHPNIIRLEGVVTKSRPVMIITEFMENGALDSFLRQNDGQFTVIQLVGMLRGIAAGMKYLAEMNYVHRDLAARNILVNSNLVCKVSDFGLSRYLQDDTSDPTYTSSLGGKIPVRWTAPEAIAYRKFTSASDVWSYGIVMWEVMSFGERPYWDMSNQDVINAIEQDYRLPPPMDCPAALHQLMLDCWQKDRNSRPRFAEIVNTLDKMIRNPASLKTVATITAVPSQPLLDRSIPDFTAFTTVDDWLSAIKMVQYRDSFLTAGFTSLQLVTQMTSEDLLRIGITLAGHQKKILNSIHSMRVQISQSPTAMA
The note with it: at 10 µM.

In experiment [6] the target is T3, Eukaryotic elongation factor 2 kinase (Homo sapiens) (UniProt O00418).
T3 sequence (whole entry): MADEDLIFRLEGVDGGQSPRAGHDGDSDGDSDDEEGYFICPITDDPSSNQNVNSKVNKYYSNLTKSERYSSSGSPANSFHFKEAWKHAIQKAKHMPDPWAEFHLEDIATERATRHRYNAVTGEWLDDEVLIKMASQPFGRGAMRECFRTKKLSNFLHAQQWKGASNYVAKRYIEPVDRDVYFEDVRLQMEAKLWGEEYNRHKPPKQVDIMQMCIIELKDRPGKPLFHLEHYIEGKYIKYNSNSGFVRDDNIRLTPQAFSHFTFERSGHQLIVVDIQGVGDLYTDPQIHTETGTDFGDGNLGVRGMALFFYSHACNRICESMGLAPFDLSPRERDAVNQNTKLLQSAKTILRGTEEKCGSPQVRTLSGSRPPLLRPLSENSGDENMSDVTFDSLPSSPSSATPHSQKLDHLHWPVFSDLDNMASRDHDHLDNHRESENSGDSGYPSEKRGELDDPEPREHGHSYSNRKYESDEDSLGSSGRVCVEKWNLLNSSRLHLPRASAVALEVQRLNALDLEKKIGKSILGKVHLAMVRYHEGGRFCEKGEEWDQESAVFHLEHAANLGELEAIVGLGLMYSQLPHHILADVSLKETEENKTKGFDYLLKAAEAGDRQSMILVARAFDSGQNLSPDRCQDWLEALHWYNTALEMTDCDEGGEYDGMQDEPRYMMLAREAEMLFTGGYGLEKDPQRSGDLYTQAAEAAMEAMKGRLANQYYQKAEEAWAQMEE
Put plainly: Selectivity interaction (Kinase panel (Invitrogen)) EUB0000639a EEF2K. The note with it: at 200 nM.

For experiment [7], the system named is Phosphatidylinositol 4,5-bisphosphate 3-kinase catalytic subunit alpha isoform (Homo sapiens), P42336 [I800L]. The conditions noted are these: at 10 µM.
Experiment [8] has as its target Receptor-interacting serine/threonine-protein kinase 2 (Homo sapiens, UniProt O43353). Nature of the experiment: Selectivity interaction (KinomeScan (DiscoverX)) EUB0001079a RIPK2. The conditions noted are these: at 1 µM.

Sequence of Ephrin type-A receptor 7 (Homo sapiens) (Q15375 28-998 limits assumed): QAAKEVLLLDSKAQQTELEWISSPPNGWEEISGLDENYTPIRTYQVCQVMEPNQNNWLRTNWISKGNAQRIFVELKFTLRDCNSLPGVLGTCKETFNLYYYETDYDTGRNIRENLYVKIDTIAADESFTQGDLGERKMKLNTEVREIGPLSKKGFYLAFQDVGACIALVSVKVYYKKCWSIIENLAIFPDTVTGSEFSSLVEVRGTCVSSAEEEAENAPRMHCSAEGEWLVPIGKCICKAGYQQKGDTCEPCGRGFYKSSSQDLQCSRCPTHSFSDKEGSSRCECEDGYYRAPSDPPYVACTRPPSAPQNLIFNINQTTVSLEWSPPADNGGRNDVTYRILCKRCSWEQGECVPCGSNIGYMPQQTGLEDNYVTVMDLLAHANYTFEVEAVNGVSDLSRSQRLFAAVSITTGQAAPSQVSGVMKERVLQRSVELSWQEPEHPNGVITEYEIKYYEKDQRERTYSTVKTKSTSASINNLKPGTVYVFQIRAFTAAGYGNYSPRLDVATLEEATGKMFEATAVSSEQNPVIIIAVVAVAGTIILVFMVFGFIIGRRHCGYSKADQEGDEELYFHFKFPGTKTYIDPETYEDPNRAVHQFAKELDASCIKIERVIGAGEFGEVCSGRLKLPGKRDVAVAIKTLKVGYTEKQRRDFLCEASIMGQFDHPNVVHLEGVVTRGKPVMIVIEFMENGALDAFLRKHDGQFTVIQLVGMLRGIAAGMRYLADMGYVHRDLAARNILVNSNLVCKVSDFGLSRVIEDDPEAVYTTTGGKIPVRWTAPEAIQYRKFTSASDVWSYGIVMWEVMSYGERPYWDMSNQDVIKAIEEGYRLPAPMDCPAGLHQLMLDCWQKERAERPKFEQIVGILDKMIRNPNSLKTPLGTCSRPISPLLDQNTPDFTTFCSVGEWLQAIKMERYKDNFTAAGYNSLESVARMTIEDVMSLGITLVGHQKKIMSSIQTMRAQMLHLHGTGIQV
Sequence of Receptor-interacting serine/threonine-protein kinase 2 (O43353 whole entry): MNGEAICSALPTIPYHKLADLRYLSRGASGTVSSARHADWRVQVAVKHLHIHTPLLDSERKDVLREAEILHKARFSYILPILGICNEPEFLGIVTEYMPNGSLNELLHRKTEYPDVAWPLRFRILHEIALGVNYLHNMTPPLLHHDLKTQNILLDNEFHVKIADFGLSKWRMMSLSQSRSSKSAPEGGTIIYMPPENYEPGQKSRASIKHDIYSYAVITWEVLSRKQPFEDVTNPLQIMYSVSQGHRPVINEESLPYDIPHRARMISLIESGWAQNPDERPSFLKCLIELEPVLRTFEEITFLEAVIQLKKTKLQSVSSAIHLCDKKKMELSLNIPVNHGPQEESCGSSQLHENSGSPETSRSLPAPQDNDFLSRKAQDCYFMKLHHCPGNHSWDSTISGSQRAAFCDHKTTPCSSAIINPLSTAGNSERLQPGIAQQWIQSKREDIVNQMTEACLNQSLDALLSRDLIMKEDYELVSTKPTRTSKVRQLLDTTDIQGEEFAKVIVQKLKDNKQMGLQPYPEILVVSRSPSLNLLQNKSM
Sequence of Mitogen-activated protein kinase 11 (Homo sapiens) (Q15759 whole entry): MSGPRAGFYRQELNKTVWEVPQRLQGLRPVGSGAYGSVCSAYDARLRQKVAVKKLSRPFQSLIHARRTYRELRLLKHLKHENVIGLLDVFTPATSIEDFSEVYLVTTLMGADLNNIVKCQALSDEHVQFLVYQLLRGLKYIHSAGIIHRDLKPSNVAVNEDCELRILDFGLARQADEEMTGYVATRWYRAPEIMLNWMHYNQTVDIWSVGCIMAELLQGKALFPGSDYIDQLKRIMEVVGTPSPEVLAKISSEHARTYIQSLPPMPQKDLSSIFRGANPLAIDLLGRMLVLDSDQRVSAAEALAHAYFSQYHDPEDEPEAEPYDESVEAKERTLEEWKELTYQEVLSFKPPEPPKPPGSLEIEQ
Sequence of Tyrosine-protein kinase JAK1 (P23458 whole entry): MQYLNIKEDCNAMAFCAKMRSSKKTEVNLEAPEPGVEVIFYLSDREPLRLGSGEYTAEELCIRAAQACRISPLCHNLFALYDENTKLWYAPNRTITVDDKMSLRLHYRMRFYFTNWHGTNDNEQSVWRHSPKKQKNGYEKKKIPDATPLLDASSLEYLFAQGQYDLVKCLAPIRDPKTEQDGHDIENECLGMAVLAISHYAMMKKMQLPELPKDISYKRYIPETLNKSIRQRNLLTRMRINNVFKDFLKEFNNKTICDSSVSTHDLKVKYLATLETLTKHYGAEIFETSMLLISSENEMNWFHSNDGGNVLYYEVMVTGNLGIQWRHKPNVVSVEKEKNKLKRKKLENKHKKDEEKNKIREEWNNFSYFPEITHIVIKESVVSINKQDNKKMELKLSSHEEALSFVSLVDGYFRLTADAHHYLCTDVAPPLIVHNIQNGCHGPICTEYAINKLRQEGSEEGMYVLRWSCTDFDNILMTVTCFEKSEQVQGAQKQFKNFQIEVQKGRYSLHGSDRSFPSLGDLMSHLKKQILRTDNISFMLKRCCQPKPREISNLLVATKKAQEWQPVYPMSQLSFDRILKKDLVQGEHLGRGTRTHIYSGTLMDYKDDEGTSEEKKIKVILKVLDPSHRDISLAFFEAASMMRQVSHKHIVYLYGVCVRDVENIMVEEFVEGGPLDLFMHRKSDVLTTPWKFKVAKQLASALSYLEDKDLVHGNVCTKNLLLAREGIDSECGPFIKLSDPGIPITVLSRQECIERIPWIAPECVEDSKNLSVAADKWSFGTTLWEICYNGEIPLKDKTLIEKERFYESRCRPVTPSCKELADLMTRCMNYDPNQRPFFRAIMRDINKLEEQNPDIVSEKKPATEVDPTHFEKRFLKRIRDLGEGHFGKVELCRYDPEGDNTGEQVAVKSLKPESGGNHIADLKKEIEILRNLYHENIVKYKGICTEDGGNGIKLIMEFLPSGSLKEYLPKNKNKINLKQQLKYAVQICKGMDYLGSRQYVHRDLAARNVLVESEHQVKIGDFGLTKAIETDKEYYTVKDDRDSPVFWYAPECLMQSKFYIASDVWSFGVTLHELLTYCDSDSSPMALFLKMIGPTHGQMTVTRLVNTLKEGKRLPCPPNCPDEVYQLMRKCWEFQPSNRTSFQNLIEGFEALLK
Sequence of Phosphatidylinositol 4,5-bisphosphate 3-kinase catalytic subunit alpha isoform (Homo sapiens), P42336 [I800L] (P42336 whole entry I800L, canonical isoform): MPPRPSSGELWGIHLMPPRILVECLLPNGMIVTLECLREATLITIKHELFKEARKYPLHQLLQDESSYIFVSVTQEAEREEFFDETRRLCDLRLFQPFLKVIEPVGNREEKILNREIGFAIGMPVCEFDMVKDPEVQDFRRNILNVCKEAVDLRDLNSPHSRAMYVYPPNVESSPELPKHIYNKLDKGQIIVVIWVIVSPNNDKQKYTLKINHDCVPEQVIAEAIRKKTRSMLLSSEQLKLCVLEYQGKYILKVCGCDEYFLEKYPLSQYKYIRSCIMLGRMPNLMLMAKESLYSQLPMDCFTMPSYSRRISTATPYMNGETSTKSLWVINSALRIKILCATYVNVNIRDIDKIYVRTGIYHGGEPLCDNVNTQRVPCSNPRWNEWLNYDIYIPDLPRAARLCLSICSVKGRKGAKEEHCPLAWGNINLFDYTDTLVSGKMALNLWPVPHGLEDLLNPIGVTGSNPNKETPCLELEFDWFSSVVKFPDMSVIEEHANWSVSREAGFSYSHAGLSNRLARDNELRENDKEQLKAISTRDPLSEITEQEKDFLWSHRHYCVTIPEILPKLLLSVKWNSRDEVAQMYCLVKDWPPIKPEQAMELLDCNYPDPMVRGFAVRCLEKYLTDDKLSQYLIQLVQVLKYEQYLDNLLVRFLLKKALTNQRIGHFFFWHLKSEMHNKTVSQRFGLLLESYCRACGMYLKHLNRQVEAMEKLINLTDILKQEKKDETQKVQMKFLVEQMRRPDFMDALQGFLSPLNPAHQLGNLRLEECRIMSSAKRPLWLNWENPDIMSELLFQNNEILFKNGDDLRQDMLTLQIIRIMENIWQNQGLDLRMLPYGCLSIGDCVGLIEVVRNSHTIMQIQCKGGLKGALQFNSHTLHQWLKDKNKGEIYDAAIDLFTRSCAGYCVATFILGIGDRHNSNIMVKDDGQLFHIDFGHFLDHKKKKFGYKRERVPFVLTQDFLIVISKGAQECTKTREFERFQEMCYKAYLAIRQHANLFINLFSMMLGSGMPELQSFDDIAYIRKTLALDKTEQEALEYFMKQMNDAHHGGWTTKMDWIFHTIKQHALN

On to `Cn1cc(-n2cnc3c(NCc4nc5cc(Cl)c(Cl)cc5[nH]4)nc(N4CCOCC4)nc32)cn1`, for which the % of control stood at 1.54% in experiment [1] and 0.0605% in experiment [2].

For the compound `N#Cc1cccc(-c2c[nH]c3ncnc(N4CCOCC4)c23)c1`, the % of inhibition in experiment [3] turned out to be 19%.

In the case of `O=C(NOC[C@H](O)CO)c1ccc(F)c(F)c1Nc1ccc(I)cc1F`, in experiment [4], the % of control turned out to be 94%.

The compound `Cc1cc([C@@H](C)Nc2ccccc2C(=O)O)c2nc(N3CCOCC3)cc(=O)n2c1` [AZD-6482] gave a % of control in experiment [5] of 98%.

In turn, `CC[C@@H]1[C@H](F)C(=O)N[C@@H]1COc1nccc2cc(C(N)=O)c(OC)cc12` [ZIMLOVISERTIB] registered a % of inhibition in experiment [6] of 21.1%.

`CCC(=O)N1CCN(c2ccc(-n3c(=O)ccc4cnc5ccc(-c6cnc7ccccc7c6)cc5c43)cc2C(F)(F)F)CC1`: the % of control in experiment [7] was 0%.

Turning to `Nc1cnc(N2CCc3cc(S(=O)(=O)Nc4c(F)cc(Cl)cc4F)cc(N4CCCC4=O)c32)nc1` [TP-020n], the % of control in experiment [8] came out at 53%.
